The source made the active and inactive calls. The calls are words filed in the database; no cut-off is given here.
What was measured:
Assay type in all cases: cell-based
[1] = molecular target: T1, Oxysterols receptor LXR-alpha (Homo sapiens) (UniProt Q13133); test: Agonist activity at LXRalpha (unknown origin) transfected in mouse SN4741 cells at 10 uM after 24 hrs by luciferase reporter gene assay
T1 sequence (whole entry): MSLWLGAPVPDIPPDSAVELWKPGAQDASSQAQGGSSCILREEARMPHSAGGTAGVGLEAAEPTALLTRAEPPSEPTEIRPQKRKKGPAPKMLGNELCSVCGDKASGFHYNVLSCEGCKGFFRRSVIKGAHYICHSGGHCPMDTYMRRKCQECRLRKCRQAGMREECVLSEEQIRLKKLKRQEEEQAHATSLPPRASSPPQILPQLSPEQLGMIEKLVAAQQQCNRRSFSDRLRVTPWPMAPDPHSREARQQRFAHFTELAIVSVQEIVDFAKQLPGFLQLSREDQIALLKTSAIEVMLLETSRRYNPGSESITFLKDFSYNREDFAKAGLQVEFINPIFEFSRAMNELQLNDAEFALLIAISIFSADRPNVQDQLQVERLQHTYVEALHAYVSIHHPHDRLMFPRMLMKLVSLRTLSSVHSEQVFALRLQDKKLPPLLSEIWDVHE

SN4741 = test: Agonist activity at LXR in mouse SN4741 cells assessed as upregulation of ABCA1 protein expression at 10 uM by immunoblot analysis
[2] = molecular target: T2, Oxysterols receptor LXR-beta (Homo sapiens) (UniProt P55055); test: Agonist activity at LXRbeta (unknown origin) transfected in mouse SN4741 cells at 10 uM after 24 hrs by luciferase reporter gene assay
T2 sequence (whole entry): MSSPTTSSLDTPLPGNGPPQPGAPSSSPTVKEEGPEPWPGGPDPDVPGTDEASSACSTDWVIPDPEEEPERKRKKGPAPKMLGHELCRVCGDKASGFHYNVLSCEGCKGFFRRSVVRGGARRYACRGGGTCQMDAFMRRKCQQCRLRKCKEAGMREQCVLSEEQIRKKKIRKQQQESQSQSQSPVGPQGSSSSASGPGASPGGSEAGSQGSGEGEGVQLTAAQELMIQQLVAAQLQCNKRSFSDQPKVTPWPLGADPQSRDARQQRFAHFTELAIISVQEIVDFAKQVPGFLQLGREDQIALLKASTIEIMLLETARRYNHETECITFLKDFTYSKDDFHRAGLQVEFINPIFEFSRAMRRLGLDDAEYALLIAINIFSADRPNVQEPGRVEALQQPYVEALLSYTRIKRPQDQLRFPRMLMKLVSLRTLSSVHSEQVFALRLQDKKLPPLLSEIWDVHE

C/C(=C/CC[C@@H](C)[C@H]1CC[C@H]2[C@@H]3CC=C4C[C@@H](O)CC[C@]4(C)[C@H]3CC[C@]12C)CO
Activity [1]: inactive
Activity (SN4741): inactive
Activity [2]: inactive

CC(C)=CCC[C@@H](C)[C@H]1CC[C@H]2[C@@H]3CC=C4C[C@@H](O)CC[C@]4(C)[C@H]3CC[C@]12C
Activity [1]: Active
Activity (SN4741): Active
Activity [2]: Active

C/C(=C\CC[C@@H](C)[C@H]1CC[C@H]2[C@@H]3CC=C4C[C@@H](O)CC[C@]4(C)[C@H]3CC[C@]12C)CO
Activity [1]: inactive
Activity (SN4741): inactive
Activity [2]: inactive

— ChEMBL document CHEMBL2417471, “Synthesis and biological activity of (24E)- and (24Z)-26-hydroxydesmosterol” (Bioorg Med Chem, 2013)
